According to patent publication US10301624B2, “Targeting human satellite II (HSATII)” (The General Hospital Corporation, priority 2014, dated 2019):

Assays:
Type in all cases: cell-based, human
DLD1 = assay: Cell viability in 3D non-adherent and 2D adherent culture, DLD1
Experimental: (§1) FIGS. 14A-D. Effect of Locked Nucleic Acids targeting HSATII on TP53 mutant Colorectal Cancer cell lines. […] Error bars represent standard deviation. P-value was calculated using student's two tailed t-test. *represents P<0.05.
(§2) Cells were transfected with LNAs either targeting HSATII or with non-specific control Locked Nucleic Acids at 500 nM concentrations using Lipofectamine 2000 according to manufacturer recommended conditions. Cells were trypsinized 24 hours after transfection and seeded at concentration of 1000 cells per well in 96 well plates either in 2 dimensional or 3 dimensional culture conditions. For 2D conditions, the cells were transferred to cell culture treated 96 well plates and grown in RPMI+10% FBS. For 3D conditions, cells were grown in (RPMI+10% FBS+) in ultra-low attachment 96 well plates.

SW620 = assay: Cell viability in 3D non-adherent and 2D adherent culture, SW620; details: SW620, non-adherent conditions, Nec-1 10 μM
Experimental: as §1, §2

HCT116 cells = assay: Proliferation assay (CellTiter-Glo), HCT116; details: cells without endogenous HSATII expression, adherent growth, ddC 100 μM vs DMSO
Experimental: FIG. 8. Proliferation assay of DMSO- or ddC-treated COLO205 (top) and HCT116 (bottom) cells. Cells were seeded at a density of 5×10^2 cells/well in a 96-well plate and quantified daily using CellTiter-Glo luminescent cell viability assay. For proliferation assays, cells were seeded at a density of 5×10^2 cells/well in a 96-well plate (Corning) in presence of DMSO/ddC (100 μM) or one day after transfection with control/[…] antisense oligonucleotides. Daily quantification was performed using CellTiter-Glo luminescent cell viability assay (Promega) with a SpectraMax M5 microplate reader (Molecular Devices).

HSATII-chr10 locus = assay: qPCR analysis on HSATII-chr10 locus after DNase I or RNase A treatment of COLO205 extracts; details: COLO205 cells, ddC 100 μM for two weeks vs DMSO
Text: FIGS. 3A-C. HSATII RNA-to-DNA conversion occurs through a reverse transcription mechanism. (A) qPCR analysis on HSATII-chr10 locus following DNAse I or RNase A treatment and reverse transcription of extracts obtained from COLO205 cells treated with DMSO or 2′, 3′-dideoxycytidine (ddC). (B) RIP lysates prepared from SW620 2D cultures or xenografts were immunoprecipitated with hTERT or IgG antibody, reverse transcribed and validated by qPCR for HSATII and TERC RNA enrichment. (C) qPCR analysis on HSATII-chr10 locus in COLO205 extracts 72 h after non-targeting (siNT) or TERT-targeting (siTERT) siRNA transfection. For all charts, values represent average of at least three independent experiments ±SEM. *P<0.05 (Student's t test).
All colon cancer cell lines were cultured in RPMI-1640+10% FBS+1% Pen/Strep (Gibco/Life Technologies). DMEM with the same supplements was used for 293T cells. For drug treatment, cells were cultured in presence of either DMSO or 100 μM 2′, 3′-dideoxycytidine (ddC, Sigma) for two weeks. […]
RNA was reverse transcribed using a SuperScript III First-Strand Synthesis kit (Invitrogen/Life Technologies) and cDNA was analyzed by qPCR using either Power SYBR-Green PCR Maser Mix or TaqMan Universal Master Mix on an ABI/PRISM 7500 platform (all reagents were from Applied Biosystems/Life Technologies). […]

COLO205 cells = assay: Proliferation assay (CellTiter-Glo), COLO205
Experimental: FIG. 8. Proliferation assay of DMSO- or ddC-treated COLO205 (top) and HCT116 (bottom) cells. Cells were seeded at a density of 5×10^2 cells/well in a 96-well plate and quantified daily using CellTiter-Glo luminescent cell viability assay.
For proliferation assays, cells were seeded at a density of 5×10^2 cells/well in a 96-well plate (Corning) in presence of DMSO/ddC (100 μM) or one day after transfection with control/HSATII antisense oligonucleotides. Daily quantification was performed using CellTiter-Glo luminescent cell viability assay (Promega) with a SpectraMax M5 microplate reader (Molecular Devices).
50 nM ON-TARGETplus Non-targeting pool siRNA (Thermo Scientific) and Mission Pre-designed TERT siRNAs (Sigma Aldrich) or 500 nM Negative Control and HSATII LNA antisense oligonucleotides (Exiqon) were electroporated into COLO205 cells according to the Neon Transfection System (Invitrogen/Life Technology) instructions using the following conditions: 1600V; pulse width 10; 3 pulses. 500 nM Negative Control/HSATII LNA antisense oligonucleotides were transfected in HCT116 and SW620 cells using Lipofectamine 2000 (Invitrogen/Life Technologies) according to the manufacturer's instructions.

HCT116 = assay: Cell growth in 3D and 2D culture, HCT116 (with or without shRNA TP53 knockdown); details: for susceptibility to ddC: HCT116 with shRNA TP53 knockdown
Experimental: (§3) FIGS. 15A-D. Effect of Locked Nucleic Acids targeting HSATII on TP53 wild type Colorectal Cancer cell lines. […] Error bars represent standard deviation. P-value was calculated using student's two tailed t-test.
FIGS. 19A-F. HCT116 cells are resistant to HSATII targeting and Reverse Transcriptase inhibition. […] Error bars represent standard deviation. P-value was calculated using student's two tailed t-test.
as §2
(§4) Stable cell lines carrying either one of two shRNAs targeting TP53, or a non-target shRNA using lentiviral infection, were generated.

HCT8 = assay: Cell growth in 3D and 2D culture, HCT8 (with or without shRNA TP53 knockdown)
Experimental: as §3
FIGS. 18A-F. TP53 knockdown sensitizes HCT8 cells to HSATII targeted Locked Nucleic Acids and Reverse Transcriptase inhibition. HCT8 colorectal cancer cells are resistant to the reverse transcriptase inhibitor ddC under 3D (A) and 2D (D) growth conditions. shRNA mediated knockdown of TP53 sensitizes the cells to reverse transcriptase inhibition under 3D (B-C), but not 2D (E-F) growth conditions. TP53 knockdown sensitizes HCT8 cells to HSATII targeted Locked Nucleic Acids under 3D (B-C), but not 2D (E-F) growth conditions. Error bars represent standard deviation. P-value was calculated using student's two tailed t-test. *represents P<0.05, **represents P<0.01.
as §2, §4

In the case of `CN1C(=O)C(Cc2c[nH]c3ccccc23)NC1=S` (stereo not drawn) [Nec-1, Necrostatin-1], the “rescue of HSATII LNA-induced growth inhibition” value (DLD1; DLD1, non-adherent conditions, Nec-1 10 μM) is reported as “rescued” and the “rescue of HSATII LNA-induced growth inhibition” value (SW620) is reported as “rescued”.
For `Nc1ccn([C@H]2CC[C@@H](CO)O2)c(=O)n1` [ddC, 2′, 3′-dideoxycytidine], the cell proliferation (HCT116 cells) was “no effect”, the “HSATII RNA species” value (HSATII-chr10 locus) was “increasing” and the “levels of endogenous HSATII rdDNA” value (HSATII-chr10 locus) was “reduced”. The cell proliferation (COLO205 cells; COLO205, ddC 100 μM vs DMSO) was “suppressed”, the “sensitivity to ddC” value (HCT116; HCT116, 2D growth conditions) was “resistant” and the “sensitivity to ddC” value (HCT116; HCT116, 3D growth conditions) was “resistant”. The “susceptibility to ddC” value (HCT116; 2D culture) was “resistance”, the “susceptibility to ddC” value (HCT116; 3D culture) was “resistance” and the growth inhibition (DLD1; DLD1, 3 dimensional culture, ddC 5 μM) was “significant growth inhibition”. The “sensitivity to ddC” value (HCT8; HCT8, 2D growth conditions) was “resistant”, the “sensitivity to ddC” value (HCT8; HCT8, 3D growth conditions) was “resistant” and the growth inhibition (HCT8; HCT8 with shRNA TP53 knockdown, 3D culture, ddC) was “significant growth inhibition”.
With “SEQ ID NO:24: Locked nucleic acids (LNA) probes commercially purchased from Exiqon (GATTCCATTCGATGAT) specifically targeting HSATII (LNA-modified, pattern not given here)” the cell proliferation (COLO205 cells; COLO205, 500 nM LNA antisense oligonucleotide vs negative control, five days) was “affected”.
